# Laboratory results taken from patent publication US20190216751A1, “Compositions and Methods for the Treatment and Prevention of Cancer” (California State University Northridge, priority 2017, published 2019).
# Tests used:
# [1] = test system: hypusinated eIF5A; experiment: Western blot hypusine versus total eIF5A; format: cell-based, mouse, human
# Procedure: (§1) The inventors sought to determine if the decrease in cell viability is due to the inhibition of post translational modification of eIF5A. To test this, all cell lines were treated with GC7 at 100 μM for 48 hours—which were the time point and concentration at which a decrease in cell viability was seen (FIG. 2B). The inventors then collected, performed a western blot and immunoblotted for hypusine, total eIF5A and β-actin as a loading control (FIG. 3A). […] To test if this effect is dose-dependent, 4T1, 67NR and MCF10CA1a cells were treated with various concentrations of GC7 ranging from 0.1 μM to 100 μM. Protein lysates were then collected after 48 hours of treatment and performed a western blot. […] To validate this in breast cancer cells, the inventors immunoblotted for PEAK1 as well as E-cadherin, hypusine, total eIF5A and β-actin as a loading control (FIG. 3B). […] The inventors next looked at cell viability at lower concentrations of GC7, such as 1 μM and 10 μM, where a decrease in hypusinated eIF5A is still achieved but the decrease in cell viability is not as great in lower concentrations that do still target hypusinated eIF5A (FIG. 3C).
# (§2) Cell lines were plated in a 6 well plate at 1e5 cells/mL and left to attach overnight. […] Protein concentrations were determined using Bradford Assay. […] Band intensity graphs were quantified using Fiji software after image thresholding.
# [2] = test system: E-cadherin in 4T1 cells; experiment: Western blot E-cadherin, TGFβ-induced EMT; format: cell-based, mouse; details: 10 μM each drug, re-treated with TGFβ 2.5 ng/mL at 48 hours, 96-hour time point
# Procedure: Next, the inventors investigated whether blockade of HDAC6 and DHPS activity could further suppress TGFβ-induced EMT either independently or simultaneously. To test this, 4T1 cells were treated with either TubA at 10 μM, GC7 at 10 μM or both for 48 hours. At this time point, protein lysates were collected as well as phase-contrast images (FIGS. 6B and 6C). At that same time point, the media was changed and the cells were re-treated with the same drugs at the same concentrations; however, this time with the addition of TGFβ at 2.5 ng/mL. The inventors collected protein lysates and phase-contrast images just one day post TGFβ treatment, calling this the 72-hour time point (FIGS. 6B and 6C). In addition, the inventors collected mRNA, protein lysates, phase-contrast and immunofluorescences images two days post TGFβ treatment, calling this the 96-hour time point (FIGS. 6A, 6B, 6C and 6D).
# Cell lines were plated in a 6 well plate at 1e5 cells/mL and left to attach overnight. Cells were then treated if necessary then lysed using Radioimmunoprecipitation assay (RIPA) buffer containing phosphatase and protease inhibitors and left to rotate at 4° C. for at least 3 hours. Lysates were then cleared by centrifugation at 12,000 RPM for 10 minutes at 4° C. Protein concentrations were determined using Bradford Assay. […] Band intensity graphs were quantified using Fiji software after image thresholding.
# [3] = test system: E-cadherin in 67NR cell line; experiment: Western blot E-cadherin after GC7; format: cell-based, mouse; details: increased GC7 concentration, 48 hours; only in 67NR
# Procedure: as §1, §2
# [4] = test system: BT549 cells; experiment: Cell proliferation assay (CellTiter 96 AQueous One, MTS); format: cell-based, human; details: TubA 1 μM pretreatment, GC7 0.1 nM to 1 mM
# Excerpt: (§3) The next research questions revolved around asking how TGFβ is regulating eIF5A and what other proteins might be involved to completely block TGFβ-induced EMT. This led to histone deacetylase enzyme 6 (HDAC6). HDAC6 has been previously reported to be responsible for the deacetylation of eIF5A in the nucleus in order to make it readily available for hypusination and later transport out in the cytoplasm for functioning as a translation factor. To determine if it were possible to further increase the efficacy or potency of GC7, the inventors co-treated with Tubastatin A (an HDAC6 inhibitor) in 4T1 and 67NR cells as well as MDA-MB-468 cells which initially were not very sensitive to GC7. Triple negative human breast cancer cell line, BT547, was also used to see if another cell line representative of this breast cancer subtype was sensitive towards DHPS and HDAC6 inhibition. (FIGS. 5A and 5B). […] MDA-MB-468 and BT549 cells remained to be insensitive to TubA with or without GC7 pretreatment (FIG. 5A). […]
# (§4) The CellTiter 96® AQueous One Solution (Promega) was used to perform cell proliferation experiments. […] Absorbance readings were measured at 490 nm wavelength at 1.5, 2 and 3 hours (absorbance is directly proportional to the number of living cells).
# [5] = test system: MDA-MB-468 cells; experiment: as above; format: cell-based, human; details: TubA 1 μM pretreatment, GC7 0.1 nM to 1 mM
# Excerpt: as §3, §4
smiles,measurement,setting,value
"N=C(N)NCCCCCCCN.O=S(=O)(O)O [GC7, N1-Guanyl-1,7-diaminoheptane]",decrease in hypusinated eIF5A protein activity,"[1]; 100 μM GC7, 48 hours, 4T1, 67NR, MCF10AT1k, MCF10CA1h and MCF10CA1a",largest decrease in hypusinated eIF5A protein activity
same,hypusinated eIF5A levels (band intensity ratio to total eIF5A),"[1]; GC7 0.1 μM to 100 μM, 48 hours, 4T1, 67NR and MCF10CA1a",consistently decreased
same,"TGFβ-induced EMT, E-cadherin protein expression",[2],dramatically increased
same,E-cadherin protein expression,[3],decrease in E-cadherin
same,change of potency of GC7 by TubA pretreatment (cell viability),[4],this effect was not seen in the three other cell lines
same,change of potency of GC7 by TubA pretreatment (cell viability),[5],this effect was not seen in the three other cell lines
